In patent US20230357134A1, “AGENTS FOR USE IN THE TREATMENT OF AMYLOIDOSIS” (UCL BUSINESS LTD, priority 2020, published 2023):

Tests used:
[1] = background statement; cited from earlier work
[2] = molecular target: T1, native recombinant wild type TTR (Homo sapiens, UniProt P02766); assay: Kinetics of ligand binding by TTR (stopped flow quenching of intrinsic fluorescence); details: for T 1/2: TTR 1 μM with equimolar ligand, 37° C., PBS pH 7.4, t½ = ln 2/k
T1 construct: the non-covalently associated protomers, of mass 13,761, each contain 127 residues; His6 (N); TEV cleavage site (N); made in house; host or cells: E. coli BL21 (DE3)
Description: Ligand binding by native TTR quenches the intrinsic fluorescence of the protein. After mixing of ligands with TTR in solution, monitoring emission of the intrinsic fluorescence over time defines the rate at which the ligand is bound by the protein. The fast phase of these binding kinetics was characterized using an SFM 3000 stopped flow device coupled to a MOS500 spectrometer with a fluorescence detection system (Bio Logic, Claix, France) and a cell path length of 1.5 mm. TTR and ligands at 37° C. were mixed at final concentrations of 1 μM each in PBS pH 7.4 containing 0.9% v/v DMSO, and were excited at 280 nm for measurement of total fluorescence emission over 325 nm using a cut off filter. Kinetic data were acquired as the average of at least 3 experimental mixings and fitted to a first order reaction using the general formula y(t)=at +b+C exp (−kt), where y(t) is the observed fluorescence, a (slope) and b (offset) corresponding to the baseline. C and k are, respectively, amplitude and rate constant of the observed fluorescence change. Data were analysed using the Biokine software and values of half-life time (t½) correspond to ln 2/k. (Table 3).

[3] = Rat oral pharmacokinetics; details: in vivo, 5 mg/kg, 5 mpk
Rat IV pharmacokinetics = details: in vivo, 1 mg/kg, 1 mpk, read-out: Rat IV PK t½ (converted)
[4] = molecular target: T2, TTR in whole human plasma (Homo sapiens, UniProt P02766); assay: Displacement of 125I-T4 from TTR in normal human plasma; format: binding; details: wild type TTR, 30 min 37° C. with ligand, immunoprecipitation, mean of at least 3 replicates, read-out: D50 plasma
T2 construct: TTR in whole plasma, from individuals homozygous for wild type TTR; from tissue; host or cells: whole human plasma
Description: 3.2 Displacement of ^125-T4 from TTR in Normal Human Plasma.
The displacement of ^125I-T4 from TTR in whole plasma, from individuals homozygous for wild type TTR, was studied by incubating plasma with each ligand at increasing concentrations for 30 min at 37° C., further incubation with […] followed by measurement of the radioactivity in the immunoprecipitate obtained with anti-TTR antibodies. […] Percentage binding was plotted against the logarithm of the inhibitor concentration, and D50 (concentration of ligand reducing the binding of T4 by TTR by 50%) was determined using a four parameter dose-response curve with GraphPad Prism 5 (Table 1).

[5] = molecular target: T3, recombinant Val122Ile TTR (Homo sapiens, UniProt P02766, V142I); assay: Mechano-enzymatic fibrillogenesis, TTR amyloid by ThT emission fluorescence; format: biochemical; details: equimolar ligand, 96 h pellets, normalized to 100 % without ligand, mean (SD)
T3 construct: the non-covalently associated protomers, of mass 13,761, each contain 127 residues; His6 (N); TEV cleavage site (N); made in house; host or cells: E. coli BL21 (DE3)
Description: (§1) Briefly, fibrillogenesis of recombinant Val122Ile TTR at 0.5 mg/ml (9 μM) in PBS, pH 7.4 was carried out in glass vials stirred at 1,400 rpm (IKA magnetic stirrer) and 37° C. in the presence and in the absence of trypsin (5 ng/μl). […] Each ligand was tested at 4 different concentrations (4.5, 9, 18, 36 μM respectively) corresponding to the following drug/TTR molar ratios of 0.5:1, 1:1, 2:1 and 4:1. Several dilutions of the drug stock solutions were made in order to add the same volume of DMSO to each sample. Control samples without drug were added with the same volume of DMSO only. To allow complete binding of ligand by TTR each sample was incubated for 30 min at 37° C. before addition of trypsin. Spectrophotometric turbidity at 400 nm was used to monitor fibril formation over time until it reached a plateau at 96 h. Aggregation of TTR in the presence of equimolar ligand concentrations was quantified as spectrophotometric turbidity at 400 nm as a proportion of 100% for aggregation of the protein in the absence of ligands (Table 2).
At the end of the 96 h aggregation, pellets were harvested from each protein sample by 20 min centrifugation at 11,600 g, thoroughly rinsed with PBS to remove non-bound ligand, resuspended with 100 μl PBS, pH 7.4 containing 10 μM ThT in Costar 96-well black-wall plates. Bottom fluorescence values (excitation 440 nm, emission 480 nm) were recorded using a BMG LABTECH FLUostar Omega plate reader. Each value was normalized to the ThT signal of the TTR sample without ligand (Table 2)

[6] = molecular target: T3, recombinant Val122Ile TTR; assay: Mechano-enzymatic fibrillogenesis, TTR aggregation by turbidity at 400 nm; format: biochemical; details: equimolar ligand, Val122Ile TTR 9 μM, trypsin, 96 h; 100 % = protein without ligand; mean (SD)
Description: as §1

isolated wild type TTR = molecular target: T4, isolated wild type TTR (Homo sapiens, UniProt P02766); assay: Displacement of 125I-T4 from isolated wild type TTR in buffer; details: concentration of ligand reducing binding of 125I-T4 by TTR by 50%; 125 nM TTR, pH 8.0, overnight 4° C.; mean of at least 3 replicates; read-out: D50 buffer
T4 construct: the non-covalently associated protomers, of mass 13,761, each contain 127 residues; His6 (N); TEV cleavage site (N); made in house; host or cells: E. coli BL21 (DE3)
Description: 3. Evaluation of Ligand Activity Based on Capacity to Displace ^125I-Thyroxine (T4) from TTR in Buffer/Human Plasma 3.1 Displacement of ^125I-T4 from Isolated Wild Type TR.
Competition of ligands with T4 for binding by TTR was assayed quantitatively by a previously described procedure (Kolstoe et al., 2010). Briefly, a solution of 125 nM TTR in 0.1 M Tris-HCl, 0.1 M NaCl and 0.001 M EDTA buffer, pH 8.0, was incubated overnight at 4° C. in the presence of 1.07 nM ^125I T4 (1,200 μCi/μg, 200 μCi/ml, Perkin Elmer) and increasing concentrations of inhibitor (0-5 μM) in 40 μl final volume. ^125I T4 bound by TTR was separated from unbound T4 by gel filtration chromatography using Micro Bio Spin 6 columns (Bio-Rad) previously equilibrated with the reaction buffer containing 1% w/v BSA. After counting with a Wizard2 gamma counter (Perkin-Elmer) for 60 s, percentage binding was plotted against the logarithm of the inhibitor concentration, and D50 (concentration of ligand reducing the binding of T4 by TTR by 50%) was determined using a four parameters dose-response curve with GraphPad Prism 5 (Table 1).

(2H, 13C, 15N) TTR = molecular target: T5, (2H, 13C, 15N) TTR (Homo sapiens, UniProt P02766); assay: 2D NMR [1H,15N] TROSY of TTR-ligand complexes; format: binding; details: equimolar ligand, 90 μM TTR, PBS pH 7.4, 310K
T5 construct: the non-covalently associated protomers, of mass 13,761, each contain 127 residues; His6 (N); TEV cleavage site (N); made in house; host or cells: E. coli BL21 (DE3)
Description: Using the same methodology as in Corazza 2019, we have studied the effect of equimolar addition of T304 or B23 to a sample of 90 μM (^2H, ^13C,^15N) TTR in PBS buffer, pH 7.4. 2D NMR [^1H,[…]] TROSY spectra were acquired with a Bruker AVANCE 800 MHz Spectrometer at 310K. After the addition of T304 or B23 to TTR some of the amide peaks of the apo form vanish and new peaks of the holo species appear indicating the binding of T304 or B23 by TTR. The changes occur for specific TTR residues where the protein senses the chemical effect of the ligands or where the ligands induce structural changes in the protein. […] Analysis of the chemical shift perturbations in the holo TTR structure confirms the involvement of the halogen binding pocket in the binding but also highlights an effect that is well beyond the ligand binding site, involving the outer helix and the outer beta strands.

SMILES | bioavailability for an oral drug [1] | half-life in vivo [1] | rate constant k of ligand-induced quenching reaction ([2]; TTR and ligand 1 μM each) | burst phase amplitude ([2]; millisecond time scale, fluorescence quenching) | Cmax [3] | half-life (Rat IV pharmacokinetics) | IC50 [4] | % Aggregation (Fluorescence method) [5] | % Aggregation (Turbidity method) [6] | IC50 (isolated wild type TTR) | T 1/2 [2] | binding mode by NMR chemical shift changes ((2H, 13C, 15N) TTR)
O=C(O)c1ccccc1Nc1cc(Cl)c(OCCCCCCCOc2c(Cl)cc(Nc3ccccc3C(=O)O)cc2Cl)c(Cl)c1 [mds84, reference compound] | very poor | short | 0.202 s⁻¹ | 8% |  |  |  |  |  |  |  | 
O=C(O)CCc1cc(Cl)c(OCCCOCCOc2c(Cl)cc(Nc3ccnnc3C(=O)O)cc2Cl)c(Cl)c1 [Compound B25, 4-[4-[2-[3-[4-(2-carboxyethyl)-2,6-dichloro-phenoxy]propoxy]ethoxy]-3,5-dichloro-anilino]pyridazine-3-carboxylic acid] |  |  |  |  | 217 ng/mL | 418 min | 3.2 µM | 8.96 (7.24) % | 3.96 (1.04) % | 70 nM |  | 
O=C(O)CCc1cc(Cl)c(OCCCOCCOc2c(Cl)cc(Nc3ccncc3C(=O)O)cc2Cl)c(Cl)c1 [Compound B27, 4-[4-[2-[3-[4-(2-carboxyethyl)-2,6-dichloro-phenoxy]propoxy]ethoxy]-3,5-dichloro-anilino]pyridine-3-carboxylic acid] |  |  |  |  | 316 ng/mL | 320 min | 2.2 µM | 12.0 (1.06) % | 4.24 (1.96) % | 100 nM | 0.866 s | 
O=C(O)CCc1cc(Cl)c(OCCCOCCOc2c(Cl)cc(Nc3cnccc3C(=O)O)cc2Cl)c(Cl)c1 [Compound B26, 3-[4-[2-[3-[4-(2-carboxyethyl)-2,6-dichloro-phenoxy]propoxy]ethoxy]-3,5-dichloro-anilino]pyridine-4-carboxylic acid] |  |  |  |  | 1450 ng/mL | 330 min | 1.4 µM | 4.62 (2.37) % | 3.93 (1.73) % | 90 nM |  | 
O=C(O)CCc1cc(Cl)c(OCC[C@@H](O)[C@H](O)CCOc2c(Cl)cc(-c3nc4ccc(C(=O)O)cc4o3)cc2Cl)c(Cl)c1 [Compound B16, 2-[4-[(3R,4R)-6-[4-(2-carboxyethyl)-2,6-dichloro-phenoxy]-3,4-dihydroxy-hexoxy]-3,5-dichloro-phenyl]-1,3-benzoxazole-6-carboxylic acid] |  |  |  |  |  |  | 14.1 µM | 4.76 (3.13) % | 4.42 (1.45) % | 90 nM | 1.415 s | 
CCc1oc(-c2cc(Cl)c(OCC[C@@H](O)[C@H](O)CCOc3c(Cl)cc(CCC(=O)O)cc3Cl)c(Cl)c2)nc1C(=O)O [Compound B23, 2-[4-[(3R,4R)-6-[4-(2-carboxyethyl)-2,6-dichloro-phenoxy]-3,4-dihydroxy-hexoxy]-3,5-dichloro-phenyl]-5-ethyl-oxazole-4-carboxylic acid] |  |  |  |  | 2580 ng/mL | 307 min | 9.8 µM | 12.6 (4.42) % | 4.41 (1.99) % | 110 nM | 1.216 s | occupancy of both binding sites
